Data taken from US20110070326A1, “OREGANO EXTRACT AND ITS COMPONENTS FOR ENHANCING VIGILANCE” (DSM IP ASSETS B.V., priority 2006, published 2011).

What was measured:
[1] = target: T1, human serotonin re-uptake transporter (hSERT) (Homo sapiens, UniProt P31645); test: Serotonin uptake inhibition in HEK-293 cells expressing hSERT; assay type: cell-based; settings: single compounds; transfected HEK-293 cells, 20 nM 3H-serotonin, 30 minutes; read-out: IC50 for tritiated serotonin uptake
T1 construct: host or cells: HEK-293
T1 sequence (P31645 whole entry): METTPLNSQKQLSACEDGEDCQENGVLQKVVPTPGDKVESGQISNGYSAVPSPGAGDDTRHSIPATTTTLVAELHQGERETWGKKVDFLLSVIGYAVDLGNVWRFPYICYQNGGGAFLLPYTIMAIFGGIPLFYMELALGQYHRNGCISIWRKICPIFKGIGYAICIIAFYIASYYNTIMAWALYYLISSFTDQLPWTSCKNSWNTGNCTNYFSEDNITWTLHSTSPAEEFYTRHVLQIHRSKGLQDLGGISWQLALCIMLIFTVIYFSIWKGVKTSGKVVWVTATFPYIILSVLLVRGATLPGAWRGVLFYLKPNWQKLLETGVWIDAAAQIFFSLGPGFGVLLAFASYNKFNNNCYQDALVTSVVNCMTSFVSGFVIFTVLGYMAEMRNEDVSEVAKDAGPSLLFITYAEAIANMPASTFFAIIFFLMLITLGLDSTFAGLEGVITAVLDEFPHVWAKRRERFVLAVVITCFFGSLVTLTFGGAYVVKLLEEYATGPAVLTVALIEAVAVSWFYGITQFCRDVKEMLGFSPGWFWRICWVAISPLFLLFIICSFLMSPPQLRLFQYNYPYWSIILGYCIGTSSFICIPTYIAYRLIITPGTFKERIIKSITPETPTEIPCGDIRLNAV
Procedure: HEK-293 cells stably expressing the human serotonin re-uptake transporter (hSERT) were obtained from R. Blakely, Vanderbilt University, USA. The cells were routinely grown in Dulbecco's Modified Eagle's Medium, purchased from Bioconcept, Allschwil, Switzerland containing 10% fetal calf serum, penicillin, streptomycin, L-glutamine and the antibiotic G418 and passaged by trypsinisation. 1 day prior to the assay cells were seeded in the above mentioned medium. […] Serotonin uptake into the cells was determined by addition of radio-labeled (3H) serotonin (Amersham Biosciences GE Healthcare, Slough, UK) to a concentration of 20 nM, and incubation for 30 minutes at room temperature. Following removal of unincorporated label by gentle washing three times with the above buffer, incorporated serotonin was quantified by liquid scintillation counting.

[2] = target: T2, human dopamine transporter (hDAT) (Homo sapiens, UniProt Q01959); assay type: cell-based; settings: transfected CHO-Ki cells, 50 nM [3H]Dopamine; n = 2; read-out: IC50 for inhibition of dopamine reuptake
T2 construct: expressed in transfected cells; host or cells: CHO-Ki (CHO-K1)
T2 sequence (Q01959 whole entry): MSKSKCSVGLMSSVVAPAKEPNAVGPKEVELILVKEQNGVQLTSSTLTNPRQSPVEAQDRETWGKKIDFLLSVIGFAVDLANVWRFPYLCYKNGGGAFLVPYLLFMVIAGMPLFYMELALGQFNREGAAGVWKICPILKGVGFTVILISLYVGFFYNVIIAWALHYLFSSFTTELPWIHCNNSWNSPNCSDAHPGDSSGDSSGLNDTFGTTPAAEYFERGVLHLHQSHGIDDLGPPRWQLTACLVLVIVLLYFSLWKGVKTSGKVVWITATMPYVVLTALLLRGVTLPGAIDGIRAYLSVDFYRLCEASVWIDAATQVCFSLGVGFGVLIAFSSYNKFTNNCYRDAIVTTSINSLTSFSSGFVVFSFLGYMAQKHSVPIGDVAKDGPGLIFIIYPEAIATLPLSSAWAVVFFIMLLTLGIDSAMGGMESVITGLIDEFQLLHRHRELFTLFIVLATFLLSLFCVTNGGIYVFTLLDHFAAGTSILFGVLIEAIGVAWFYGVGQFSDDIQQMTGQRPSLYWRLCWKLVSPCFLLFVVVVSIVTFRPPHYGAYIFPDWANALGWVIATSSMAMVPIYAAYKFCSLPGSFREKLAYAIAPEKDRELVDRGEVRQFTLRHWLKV
Procedure: CHO-Ki/hDAT cells expressing the human dopamine transporter (hDAT) were plated before the assay. Cells (2×10^5/ml) were incubated with oregano extract and/or vehicle in modified Tris-HEPES buffer pH 7.1 at 25° C. for 20 minutes before addition of 50 nM [^3H]Dopamine for 10 minutes. Specific signal was determined in the presence of 10 μM nomifensine. Cells were then solubilized with 1% SDS lysis buffer. Reduction of [^3H]Dopamine uptake by 50 percent or more (≧50%) relative to vehicle controls indicates significant inhibitory activity.

mice = test: Porsolt's Forced Swim Test (Behavioral Despair Test), i.p.; assay type: in vivo, mouse; settings: 32 mg/kg i.p., −30 min; 15 mice
Procedure: The test, which detects antidepressant activity, was carried out as described by Porsolt et al supra. Mice which are forced to swim in a situation from which they cannot escape rapidly become immobile. Antidepressants decrease the duration of immobility.
Mice were individually placed in cylinders (Height=24 cm, Diameter=13 cm) containing 10 cm water (22° C.) from which they could not escape. The mice were placed in the water for 6 minutes and the duration of immobility during the last 4 minutes was measured.
15 mice were studied per each of the four groups.
Oregano extract 1 was evaluated at 3 doses (10, 30 and 60 mg/kg), administered i.p. 30 minutes before the test, and compared with a control group, administered vehicle in the same manner. The thus administered […] was dissolved in vehicle (saline solution containing 3% (v/v) DMSO and 3% (v/v) Tween® 80). Venlafaxine (16 mg/kg, i.p.), as comparison substance, and imipramine (32 mg/kg, i.p.), as reference compound, were administered under the same experimental conditions.
Data were analyzed by comparing the treated groups with the control group using unpaired Student's t tests and are presented in Table 3.

mouse = test: Porsolt's Forced Swim Test after subchronic oral gavage; assay type: in vivo; settings: 32 mg/kg p.o., −24, −5, −1 h
Procedure: This test, which detects antidepressant activity, was performed in the same manner as that described in example 7, except that the route of administering the compound and the doses were different. Oregano extract 4 was evaluated at 3 doses (75, 150, and 300 mg/kg), administered orally (p.o.) 24, 5, and 1 hour before the test, and compared with a vehicle control group. The thus administered […] was dissolved in tocopherol-stripped corn oil “vehicle”). The control group was administered vehicle (p.o.), while imipramine (32 mg/kg, p.o.; dissolved in water) was administered to a separate group as reference compound, 24, 5 and 1 h prior to the test.
Mice were individually placed in cylinders (Height=24.5 cm, Diameter=19.5 cm) containing 13.5 cm water (22° C.) from which they could not escape. The mice were placed in the water for 6 minutes, automatically viewed via a video camera and monitored by a commercially available software system (VideoMot2, TSE Systems GmbH, Germany), and the duration of immobility during the last 4 minutes was measured.
10 mice were studied per each of the five groups. Data were analyzed by comparing the treated groups and the positive control group with the vehicle group using Analysis of Variance (ANOVA) and the Bonferroni post-hoc test.

Compound	IC50 [1]	IC50 [2]	DURATION OF IMMOBILITY % change from control (mice)	DURATION OF IMMOBILITY (s) Mean ± s.e.m. (mice)	DURATION OF IMMOBILITY % change from control (mouse)	DURATION OF IMMOBILITY (s) Mean ± s.e.m. (mouse; 10 mice)
Cc1cc(O)c(C(C)C)cc1O [Thymoquinol]	26.6 µM	65.6 ± 1.2 µM				
Cc1ccc(C(C)C)c(O)c1 [Thymol]	5 µM					
CN(C)CCCN1c2ccccc2CCc2ccccc21 [Imipramine]			−70%	49.7 ± 7.9 s	−50%	64.59 ± 8.26 s
